Results published in patent US20230190883A1, “STABLE PEPTIDES HAVING RENALASE AGONIST ACTIVITY” (Bessor Pharma, LLC, priority 2020, published 2023).
Marks after values point to notes of the source that are not given here.

Experiments:
[1] = tested on: carrageenan-induced Paw edema; assay: carrageenan-induced paw edema (CPE) model in mice; type: in vivo, CD-1 mice; details: for activity at 2 hours: 2 hours after carrageenan
Text: This test is a rapid in vivo model for evaluation of anti-inflammatory efficacy of test articles. The CPE model in mice quantitativdy assesses inhibition of edema enduced by subplantarinjection of carrageenan. […] Carrageenan-induced inflammation invoves extravasation of polymorphonuclear leukocytes from circulation to the site of inflammation. The subsequent release of myeloperoxidase and other cytokines within the interstitial tissues results in plasma exudation into the site of inflammation. The increased paw volume is measured by water displacement. Anti-inflammatory drugs reduce the paw edema.
• 1. Receive (SOP 1910, SOP 1920) and quarantine (SOP 560) 125 CD-1 mice (Charles River Laboratories, male, 5-6 weeks old). • 2. Animals are ear tagged (SOP 810), weighed, and sorted into 9 groups with 10 animals/group and 5 groups of 7 animals/group based upon average body weight. • 3. Prepare 3% carrageenan solution: • 1) Preparation at least 2 weeks in advance of use. • 2) Weigh out 600 mg A-carrageenan into a glass beaker. • 3) Add 20 ml deionized water. • 4) Stir on mild heat until carrageenan fully dissolved. • 5) Cool solution to ambient temperature. • 6) Store at 4-8° C. • 4. Until the day of use the renalase peptides are stored at -20° C. as dry powder. • 5. DAY 0 • a. Prepare test material in sterile saline (vehicle). • b. On the day of dosing, renalase peptides are dissolved. • c. On day prior to administration check carrageenan solution for clarity (no visible evidence of contamination). • 1) Equilibrate carrageenan to ambient temperature. • d. Record mouse weights in laboratory notebook. • e. Measure and record paw initial paw volumes: • 1) Place beaker of water on balance and tare to zero. • 2) Place right hind limb in the beaker of water on the scale with the top of the hock centered in the meniscus of the water. Record read-out on the scale. • 3) The foot must be dried after each measurement as wet feet will change the readout. • 4) Re-tare the scale between measurements to account for decrease in water volume. • f. […]
The test was also conducted to compare the inhibition of inflammation by peptide 10 as compared to the corresponding peptide fragment without the alanine substitution at position 220 (peptide 81).

[2] = tested on: renal ischemia reperfusion injury; assay: renal ischemia reperfusion injury, preclinical murine model; type: in vivo
severe viral infection = assay: model of severe viral infection in renalase-deficient mice; details: FIG. 12
[3] = tested on: blood from healthy donors; type: cell-based
acute pancreatitis = assay: experimental acute pancreatitis (AP), mouse model; type: in vivo
Text: This likely represents inhibition of inflammatory pathways central to AP pathogenesis; a probable target is inflammatory activation (FIG. 5). Since most patients with AP present long after disease onset and later onset responses are most important in determining AP severity, the beneficial effects of peptide 10 should be therapeutically valuable even late in the course of disease. In this context we have shown that RNLS agonists reduce injury when given 2 hrs after the onset of cerulein AP and 12hrs after the induction of arginine AP.

COVID-19 mouse model = assay: COVID-19 mouse model, survival; details: FIG. 11
cronin 1 = assay: levels of cronin 1, marker for inflammatory cells; details: FIG. 14
[4] = tested on: cerulin-induced severe pancreatitis; assay: cerulin-induced severe pancreatitis model; type: in vivo; details: FIG. 13
[5] = tested on: cultured proximal renal tubule cell line; assay: cisplatin-induced injury of cultured kidney cells; type: cell-based
Text: We have shown that a peptide of the invention [Ala^220]-Ac-Renalase A (205-240)-NH2 eliminated cisplatin-induced injury of cultured kidney cells. […] Data are shown below for such RNLS agonists

[6] = tested on: cisplatin induced kidney injury; assay: cisplatin-induced kidney injury in vivo
Text: A key measure of this toxicity is a decrease in kidney mass; this is limited when Renalase A (205-240)-OH is given. More dramatic is the effect of peptide on the reduced renal function seen with cisplatin induced renal injury.

[7] = 10 mpk, * = statistical significance
[8] = peptide at 50 ug/ml, 3 hrs incubation, ELISA, p<0.01

## C[C@@H]1C[C@H]2[C@@H]3CCC4=CC(=O)C=C[C@]4(C)[C@@]3(F)[C@@H](O)C[C@]2(C)[C@@]1(O)C(=O)CO [Dexamethasone, reference compound]
[1]; [7]
  percent change from control, paw edema, 2 hr after carrageenan: 51.2* percent
[1]; 10 mpk
  percent change from control, paw edema, 4 hr after carrageenan: 49.7* percent
  percent change from control, paw edema, 10 hr after carrageenan: 55.6* percent

## [Ala^220]-Ac-Renalase A (205-240)-NH2 (KIDVPWAGQYITSNPAIRFVSIDNKKRNIESSEIGP; N-acetyl, C-terminal amide; Based on homo sapiens sequence) [peptide 10]
[2]
  renal ischemia reperfusion injury: reduced
Severe viral infection
  protection in severe viral infection: protects
[3]; FIG. 5
  inflammatory response to SARS-CoV-2 peptides: decreases
[3]; [8]
  SARS-CoV-2-peptide induced increase of IL1-beta: inhibited
  SARS-CoV-2-peptide induced increase of IL6: inhibited
  SARS-CoV-2-peptide induced increase of TNF-alpha: inhibited
[3]; peptide at 50 ug/ml, SARS-CoV-2 peptides 0.19 nM, 3 hrs incubation, ELISA
  SARS-CoV-2 peptide S and M induced levels of interferon-gamma: dramatically decreased
Acute pancreatitis; FIG. 2
  injury in acute pancreatitis: reduces injury
Acute pancreatitis; earliest responses, not shown
  earliest AP responses (acinar cell related): no effects
Acute pancreatitis; later responses (6 hrs), FIG. 2A
  levels of active trypsin: tended to reduce
Acute pancreatitis; later responses (6 hrs), FIG. 2B
  tissue neutrophils: dramatically decrease
Acute pancreatitis; later responses (6 hrs), FIG. 2C, D
  mitochondrial injury as determined by OPA-1 and Parkin levels: reduced
[1]; 0.3-30 mg/kg SC 30 min prior to carrageenan, test period of 10 hours, FIGS. 6 and 7
  anti-inflammatory effect on paw edema: has an anti-inflammatory effect
[1]
  activity at 2 hours: active
[1]; comparable but different experiments, same protocols
  activity and duration of activity compared with peptide 81: more active and longer active than peptide 81
[1]; later than 2 hours
  activity for longer periods of time: only peptide 10 was active
[1]; versus dexamethasone and indomethacin
  activity compared with standards: activity more in line with standards dexamethasone and indomethacin
COVID-19 mouse model
  survival: improves survival
Cronin 1
  levels of cronin 1: decreases
[4]
  necrosis: effective in reducing necrosis
[5]
  cisplatin-induced injury of cultured kidney cells: eliminated
[5]; FIG. 3
  injury in a cultured proximal renal tubule cell line: reduces injury

## Renalase A (205-240)-OH [Peptide 81]
[1]; 3 mpk
  percent change from control, paw edema, 2 hr after carrageenan: 14.2%
  percent change from control, paw edema, 4 hr after carrageenan: 1.6%
  percent change from control, paw edema, 6 hr after carrageenan: −13.1%
  percent change from control, paw edema, 10 hr after carrageenan: 2.4%
[1]; [7]
  percent change from control, paw edema, 2 hr after carrageenan: 62.6* percent
[1]; 10 mpk
  percent change from control, paw edema, 4 hr after carrageenan: 0.5%
  percent change from control, paw edema, 6 hr after carrageenan: 2.9%
  percent change from control, paw edema, 10 hr after carrageenan: 13.3%
[1]
  activity at 2 hours: active
[6]; 17 days of cisplatin treatment (4-fold increase without agonist), FIG. 4 right panel
  plasma creatinine levels: reduced this toward the normal range
[6]; FIG. 4
  kidney injury after cisplatin-induced treatment: reduces kidney injury
[6]; cisplatin toxicity, FIG. 4
  decrease in kidney mass: limited

## COc1ccc2c(c1)c(CC(=O)O)c(C)n2C(=O)c1ccc(Cl)cc1 [Indomethacin, reference compound]
[1]; 5 mpk
  percent change from control, paw edema, 2 hr after carrageenan: 79.4* percent
  percent change from control, paw edema, 4 hr after carrageenan: 60.3* percent
  percent change from control, paw edema, 6 hr after carrageenan: 42.4* percent
  percent change from control, paw edema, 10 hr after carrageenan: 21.3%
